Where two headings read alike, the source gives them in different places.
How the values were obtained:
[1] = system: gastric mucosa; assay: Ulcerogenic liability (ulcer index); assay type: in vivo, albino mice; settings: orally, three successive days, 10 mg/kg indomethacin mol equivalent; for Number of animals with ulcer: 6 animals per group; for Ulcer index: sum of the three values
Outline: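 Albino mice were fasted 18 h before dosing, and controls got saline with a few drops of Tween 80. Gastric mucosa was checked under a 10× lens for lesions and erosions. The ulcer index combines percentage incidence divided by 10, mean ulcers per stomach and mean severity.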

[2] = system: HCT116 (colon) carcinoma cell line; assay: Anti-tumor properties, MTT; assay type: cell-based; settings: Homo sapiens, HCT-116
Outline: (§1)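 Cells seeded at 10×10^3 per well for 24 h, then exposed to compound in serum-free medium (final up to 100 μM, 0.5% DMSO vehicle) for 72 h in triplicate. Viability by MTT reduction (4 h, SDS solubilised), absorbance 595 nm/ref 620 nm; IC50 from survival curves.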

[3] = system: HepG2 (hepatocellular) carcinoma cell line; assay: Anti-tumor properties, MTT; assay type: cell-based; settings: Homo sapiens
Outline: as §1

[4] = system: MCF7 (breast) carcinoma cell line; assay: Anti-tumor properties, MTT; assay type: cell-based; settings: Homo sapiens
Outline: as §1

[5] = system: MCF-7 cells; assay: Effect on doxorubicin induced cytotoxicity (MTT)
Outline: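 MCF-7 cells were exposed for 48 hr to 100 μM curcumin derivative alone or combined with 10 μM doxorubicin. Controls got medium, DMSO vehicle, or vehicle+doxorubicin. Percent viable cells was read by MTT assay.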

[6] = system: Staphylococcus aureus ATCC25923; assay: Antimicrobial MIC, agar dilution
[7] = system: Candida albicans (local isolate); assay: Antimicrobial MIC, agar dilution; settings: Candida albicans, read-out: Minimum inhibitory concentration (MIC)
[8] = system: A-549 (lung) carcinoma cell line; assay: Anti-tumor properties, MTT; assay type: cell-based; settings: Homo sapiens, A549
[9] = system: PC3 (prostate) carcinoma cell line; assay: Anti-tumor properties, MTT; assay type: cell-based; settings: Homo sapiens
[10] = ATCC25923, 18 h, read-out: Minimum inhibitory concentration (MIC)
[11] = ATCC25923, read-out: Minimum inhibitory concentration (MIC)

**Q.** Which results are given for `COc1cc(/C=C/C(=O)CC(=O)/C=C/c2ccc(OC(=O)C(C)NC(=O)OCc3ccccc3)c(OC)c2)ccc1OC(=O)C(C)NC(=O)OCc1ccccc1` (racemic) [Cbz-DL-Ala-Cur, ((1E,6E)-3,5-dioxohepta-1,6-diene-1,7-diyl)bis(2-methoxy-4,1-phenylene) bis(2-(((benzyloxy)carbonyl)amino)propanoate)]?
**A.** % Incidence of ulcer divided by 10 [1]: 3.33; Average of ulcer number [1]: 0.67; Average severity of ulcer [1]: 0.67; Number of animals with ulcer [1]: 2/6; Ulcer index [1]: 4.67; activity at 100 µM ([2]; HCT116, 100 μM, 72 h, read-out: Percentage growth of tumor cell lines treated with the tested compounds (±SD)): 92 ± 2.1%; activity at 100 µM ([3]; HepG2, 100 μM, 72 h, read-out: Percentage growth of tumor cell lines treated with the tested compounds (±SD)): 82.9 ± 4.1%; activity at 100 µM ([4]; MCF7, 100 μM, 72 h, read-out: Percentage growth of tumor cell lines treated with the tested compounds (±SD)): 62.7 ± 4.7%; Percentage of viable cells MCF-7 (average ± SD) ([5]; 10 μM DOX in combination with 100 μM curcumin derivative, 48 hr): 45.70 ± 2.23; viability at 100 µM ([5]; Homo sapiens, MCF7, 48 h, read-out: Percentage of viable cells MCF-7 (average ± SD)): 98.8 ± 4.55%; MIC [6, 10]: 0.5 µg/mL; MIC [6, 11]: 0.642 µM; MIC ([7]; 18 h): 0.5 µg/mL; MIC [7]: 0.642 µM

**Q.** `COc1cc(/C=C/C(=O)CC(=O)/C=C/c2ccc(OC(=O)[C@H](N)CCSC)c(OC)c2)ccc1OC(=O)[C@H](N)CCSC.Cl.Cl` [HCl-D-Met-Cur, (2R,2′R)-1,1′-((((1E,6E)-3,5-dioxohepta-1,6-diene-1,7-diyl)bis(2-methoxy-4,1-phenylene))bis(oxy))bis(4-(methylthio)-1-oxobutan-2-aminium) chloride] was tested. Which “% Incidence of ulcer divided by 10” value [1] did it give?
**A.** Its value is 0.

**Q.** And the “Average of ulcer number” value [1]?
**A.** Its value is 0.

**Q.** And the “Average severity of ulcer” value [1]?
**A.** The value was 0.

**Q.** And the “Number of animals with ulcer” value [1]?
**A.** The value was 0/6.

**Q.** And the Ulcer index [1]?
**A.** Its Ulcer index is 0.

**Q.** And the IC50 ([2]; read-out: IC50 (μM) HCT116 (colon))?
**A.** Its IC50 is 46.7 µM.

**Q.** What about the IC50 ([3]; HepG2, read-out: IC50 (μM) HepG2 (liver)) of the same compound?
**A.** The IC50 was 43.6 µM.

**Q.** What about the IC50 ([4]; MCF7, read-out: IC50 (μM) MCF7 (breast)) of the same compound?
**A.** Its IC50 is 10.2 µM.

**Q.** And the IC50 [8]?
**A.** Its IC50 is 20 µM.

**Q.** What about the IC50 [9] of the same compound?
**A.** Its IC50 is 41.5 µM.

**Q.** And the MIC [6, 10]?
**A.** Its MIC is 0.125 µg/mL.

**Q.** And the MIC [6, 11]?
**A.** The MIC was 0.178 µM.

**Q.** What about the MIC ([7]; 18 h) of the same compound?
**A.** Its MIC is 1 µg/mL.

**Q.** And the MIC [7]?
**A.** Its MIC is 1.42 µM.
